Assay results taken from patent US20130150399A1, “INHIBITORS OF THE UNFOLDED PROTEIN RESPONSE AND METHODS FOR THEIR USE” (The Board of Trustees of the Leland Stanford Junior …, priority 2006, published 2013).

How the values were obtained:
XBP-1s = experiment: Western immunoblot of XBP-1s, HT1080 cells; type: cell-based, human
Experimental: Cells were harvested, lysed, and analyzed by Western blot using anti-XBP-1 antisera (lower panel) or anti-HIF-1 antisera (top panel) to confirm hypoxia exposure.
Cells (2×10^6) were cultured in 10-cm dishes, collected using a cell scraper at 4° C., and lysed by addition of 150 μl cell lysis buffer [50 mM Tris pH 7.4, 150 mM NaCl, 10% glycerol, 0.5% Triton X-100. 0.5% NP-40, 2 mM Na3VO4, 20 mM beta-glycerophosphate, 10 mM NaF, 1 mM DTT, 1 mM PMSF). Lysates were centrifuged for 5 min at 10,000×g, and proteins (˜40 μg) were resolved by SDS-PAGE followed by semi-dry transfer to nitrocellulose membranes. Membranes were blocked in TBS-5% milk supplemented with 0.1% Tween-20. […] After washing in block solution, immunoreactive material was detected by enhanced chemiluminescence (SuperSignal West Dura Extended, Pierce, Inc., Rockville, Ill.).
A. XBP-luciferase reporter construct. […] After 24 hours, luciferase activity was analyzed in an automated plate reader. For each cell line, values are expressed as the percent inhibition of the median for Tm/Tg-treated wells, corrected for background. […] Values are expressed as the fold increases over uninduced levels. […] Cells were harvested, lysed, and analyzed by immunoblotting with antisera specific for HIF-1α (top), XBP-1s (middle) or actin (bottom). […] Total RNA was analyzed by Northern blotting using radiolabeled probes specific for P58^IPK or DER-1. […]

caspase-3 = experiment: Cleavage of caspase-3, HT1080 cells; type: cell-based, human; settings: 2.5 μM
Experimental: Cells (2×10^6) were cultured in 10-cm dishes, collected using a cell scraper at 4° C., and lysed by addition of 150 μl cell lysis buffer [50 mM Tris pH 7.4, 150 mM NaCl, 10% glycerol, 0.5% Triton X-100. 0.5% NP-40, 2 mM Na3VO4, 20 mM beta-glycerophosphate, 10 mM NaF, 1 mM DTT, 1 mM PMSF). Lysates were centrifuged for 5 min at 10,000×g, and proteins (˜40 μg) were resolved by SDS-PAGE followed by semi-dry transfer to nitrocellulose membranes. Membranes were blocked in TBS-5% milk supplemented with 0.1% Tween-20. The blots were then probed overnight with relevant antibodies, washed, and incubated for 2 hours with species-specific secondary antibodies conjugated to horseradish peroxidase. After washing in block solution, immunoreactive material was detected by enhanced chemiluminescence (SuperSignal West Dura Extended, Pierce, Inc., Rockville, Ill.).
A. Effect of irestatin 9389 on PERK and ATF6 pathways. […] Protein lysates were analyzed by Western blot analysis using antisera specific for ATF6 (top), CHOP/GADD153 (middle) or actin (bottom). […] Cells were harvested, counted, and allowed to grow under normal culture conditions for 11-12 days. […] D. Quantification of clonogenic survival assay. […] F. Quantification of TUNEL-positive cells. […] Cells were harvested at the indicated times and counted by hemocytometer. Values represent the mean calculated from triplicate experiments+/−SEM. […]

RNAse A = molecular target: T1, RNAse A (Bos taurus, UniProt P61823); experiment: RNAse A activity assay; type: biochemical, bovine; settings: >100-fold molar excess of irestatin 9389
T1 construct: purchased Sigma
T1 sequence (P61823 27-150): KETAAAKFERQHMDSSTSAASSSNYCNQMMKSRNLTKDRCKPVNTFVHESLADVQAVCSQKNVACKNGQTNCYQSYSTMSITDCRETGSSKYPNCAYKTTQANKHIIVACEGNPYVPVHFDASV

Question: With `Cc1csc(NC(=O)CSc2nc3c(c(C(F)(F)F)c2C#N)CCC3)n1` [Compound 9389] as the compound, how does the “levels of XBP-1s under hypoxia” value (XBP-1s; 2 μM, 24 hours of hypoxia) read?
Answer: The value was “decreased levels of XBP-1s”.

Question: What about the “accumulation of XBP-1s following treatment with Tm” value (XBP-1s; irestatins 2 μM, Tm (4 μg/ml) 20 hours) of the same compound?
Answer: The value was “blocked the accumulation of XBP-1s”.

Question: And the “cleavage of caspase-3” value (caspase-3; 36 hours of hypoxia)?
Answer: Its value is “stimulated cleavage of caspase-3”.

Question: What about the caspase-3 processing (caspase-3; normal oxygen conditions) of the same compound?
Answer: The caspase-3 processing was “no effect on caspase-3 processing”.

Question: What about the “degradation of the XBP-1 3′ intronic loop by RNAse A” value (RNAse A) of the same compound?
Answer: The value was “failed to inhibit degradation”.
